This passage reports HPAEC-PAD product analysis results from PMC5144078, “Bifidobacterium breve UCC2003 metabolises the human milk oligosaccharides lacto-N-tetraose and lacto-N-neo-tetraose through overlapping, yet distinct pathways” (Scientific Reports, 2016).

Assay in all cases: HPAEC-PAD product analysis
For one assay, the target named is T1, NahA (NahAHis) (Bifidobacterium breve, UniProt D4BR02).
T1 construct: gene BIFBRE_04532; GH20 beta-N-acetylhexosaminidase; N-terminal His10 tag; gene of 660 codons; expressed in Lactococcus lactis NZ9000
It counts as biochemical. The following applies: MOPS pH 7.0, 37 °C; lacto-N-triose made in situ from LNT or LNnT by LntA, LntA heat-denatured before NahA addition.

The next assay addresses T2, LntA (LntAHis) (Bifidobacterium breve, UniProt D4BMY8).
T2 construct: gene BIFBRE_03435; GH42 beta-galactosidase; purified His-tagged protein
Format: biochemical. The following applies: 20 mM MOPS pH 7.0, 37 °C, 24 h, 1 mg/ml substrate.

Another assay has as its target T3, LacZ6 (LacZ6His) (Bifidobacterium breve, UniProt D4BR09).
T3 construct: gene BIFBRE_04539
The conditions noted are these: 20 mM MOPS pH 7.0, 37 °C, 24 h, 1 mg/ml substrate.

T2 sequence (D4BMY8 1-691): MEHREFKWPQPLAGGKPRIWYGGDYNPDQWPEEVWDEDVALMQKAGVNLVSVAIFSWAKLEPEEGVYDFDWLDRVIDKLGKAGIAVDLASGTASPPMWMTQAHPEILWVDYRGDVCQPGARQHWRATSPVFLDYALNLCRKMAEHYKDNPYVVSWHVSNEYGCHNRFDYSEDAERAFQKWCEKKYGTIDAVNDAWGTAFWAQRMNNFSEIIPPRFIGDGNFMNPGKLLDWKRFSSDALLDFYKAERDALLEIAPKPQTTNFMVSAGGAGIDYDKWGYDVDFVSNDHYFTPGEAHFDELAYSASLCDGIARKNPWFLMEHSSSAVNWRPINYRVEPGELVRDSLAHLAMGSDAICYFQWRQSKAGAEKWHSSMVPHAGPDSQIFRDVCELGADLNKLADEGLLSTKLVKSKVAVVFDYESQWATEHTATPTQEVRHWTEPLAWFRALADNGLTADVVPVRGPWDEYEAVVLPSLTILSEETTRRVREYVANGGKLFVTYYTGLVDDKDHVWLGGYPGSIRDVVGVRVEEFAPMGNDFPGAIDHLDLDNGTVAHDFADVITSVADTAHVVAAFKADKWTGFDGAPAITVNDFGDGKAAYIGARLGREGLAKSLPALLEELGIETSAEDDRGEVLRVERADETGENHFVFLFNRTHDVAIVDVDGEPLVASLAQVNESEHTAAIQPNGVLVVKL
T1 sequence (D4BR02 entry or part of it): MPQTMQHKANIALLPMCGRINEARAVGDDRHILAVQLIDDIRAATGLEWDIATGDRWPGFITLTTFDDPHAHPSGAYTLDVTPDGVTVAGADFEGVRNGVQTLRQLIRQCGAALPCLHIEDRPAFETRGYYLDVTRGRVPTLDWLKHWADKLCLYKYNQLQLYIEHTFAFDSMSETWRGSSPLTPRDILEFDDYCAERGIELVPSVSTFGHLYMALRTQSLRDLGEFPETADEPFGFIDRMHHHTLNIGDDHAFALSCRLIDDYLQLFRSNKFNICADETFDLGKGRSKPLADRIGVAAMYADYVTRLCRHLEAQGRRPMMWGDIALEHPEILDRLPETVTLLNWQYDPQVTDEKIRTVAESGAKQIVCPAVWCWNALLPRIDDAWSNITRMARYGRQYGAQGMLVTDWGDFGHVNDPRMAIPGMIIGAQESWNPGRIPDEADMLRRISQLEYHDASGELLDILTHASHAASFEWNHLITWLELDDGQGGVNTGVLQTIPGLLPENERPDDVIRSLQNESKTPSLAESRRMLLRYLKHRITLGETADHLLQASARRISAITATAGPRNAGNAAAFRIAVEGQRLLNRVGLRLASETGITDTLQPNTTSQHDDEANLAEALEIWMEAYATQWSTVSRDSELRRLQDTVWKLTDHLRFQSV
T3 sequence (D4BR09 1-1045): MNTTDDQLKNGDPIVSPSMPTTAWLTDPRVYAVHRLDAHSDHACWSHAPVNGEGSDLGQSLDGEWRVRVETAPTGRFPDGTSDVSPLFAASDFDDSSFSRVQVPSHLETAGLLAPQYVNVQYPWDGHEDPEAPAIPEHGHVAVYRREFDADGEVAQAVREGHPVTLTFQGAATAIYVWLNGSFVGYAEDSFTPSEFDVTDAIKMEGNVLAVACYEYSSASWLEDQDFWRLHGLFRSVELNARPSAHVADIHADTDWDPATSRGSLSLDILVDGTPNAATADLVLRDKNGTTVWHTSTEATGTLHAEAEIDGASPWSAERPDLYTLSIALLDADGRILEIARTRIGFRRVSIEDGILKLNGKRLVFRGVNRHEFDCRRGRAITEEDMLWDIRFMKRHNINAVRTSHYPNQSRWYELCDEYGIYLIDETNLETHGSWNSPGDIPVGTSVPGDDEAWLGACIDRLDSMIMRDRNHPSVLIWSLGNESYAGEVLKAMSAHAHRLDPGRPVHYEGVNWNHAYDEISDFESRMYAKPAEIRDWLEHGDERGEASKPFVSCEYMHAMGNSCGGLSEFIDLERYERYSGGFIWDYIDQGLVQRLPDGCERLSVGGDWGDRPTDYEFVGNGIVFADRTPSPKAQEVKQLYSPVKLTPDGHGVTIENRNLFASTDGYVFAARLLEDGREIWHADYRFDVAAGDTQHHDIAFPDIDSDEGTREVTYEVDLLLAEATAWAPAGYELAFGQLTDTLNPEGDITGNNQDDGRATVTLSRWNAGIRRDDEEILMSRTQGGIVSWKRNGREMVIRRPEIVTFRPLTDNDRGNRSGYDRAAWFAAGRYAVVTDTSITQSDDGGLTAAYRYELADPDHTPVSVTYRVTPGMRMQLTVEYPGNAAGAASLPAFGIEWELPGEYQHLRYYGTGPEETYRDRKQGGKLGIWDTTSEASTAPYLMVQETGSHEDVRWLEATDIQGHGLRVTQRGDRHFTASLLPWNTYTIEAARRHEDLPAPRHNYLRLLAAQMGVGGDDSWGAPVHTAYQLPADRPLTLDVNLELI

As for `CC(=O)N[C@H]1[C@H](O[C@H]2[C@@H](O)[C@@H](CO)O[C@@H](O[C@H]3[C@H](O)[C@@H](O)C(O)O[C@@H]3CO)[C@@H]2O)O[C@H](CO)[C@@H](O)[C@@H]1O` (stereo partly shown) [lacto-N-triose], the HPAEC-PAD product analysis result on NahA (NahAHis) was “Lacto-N-triose is then hydrolysed by NahA, liberating Lactose and GlcNAc”.

In the case of `CC(=O)N[C@H]1[C@H](O[C@H]2[C@@H](O)[C@@H](CO)O[C@@H](O[C@H]3[C@H](O)[C@@H](O)C(O)O[C@@H]3CO)[C@@H]2O)O[C@H](CO)[C@@H](O)[C@@H]1O[C@@H]1O[C@H](CO)[C@H](O)[C@H](O)[C@H]1O` (stereo partly shown) [LNT, lacto-N-tetraose], the HPAEC-PAD product analysis entry at LntA (LntAHis) is “Purified LntAHis was shown to remove the galactose moiety at the non-reducing end”. For the compound `CC(=O)N[C@H]1[C@H](O[C@H]2[C@@H](O)[C@@H](CO)O[C@@H](O[C@H]3[C@H](O)[C@@H](O)C(O)O[C@@H]3CO)[C@@H]2O)O[C@H](CO)[C@@H](O[C@@H]2O[C@H](CO)[C@H](O)[C@H](O)[C@H]2O)[C@@H]1O` (stereo partly shown) [LNnT, lacto-N-neotetraose], the HPAEC-PAD product analysis entry on LntA (LntAHis) was “Purified LntAHis was capable of removing the galactose moiety at the non-reducing end of LNnT”; on LacZ6 (LacZ6His) it was “Purified LacZ2His and LacZ6His were, under the conditions applied, also capable of hydrolysing LNnT”.
